From US10428013B2, “Amide compound, preparation method and uses thereof” (Shanghai Institute of Phamaceutical Industry, priority 2011, dated 2019)

Columns and labels:
[1] = system: Hyperlipemia Model of SD Rat; test: Screening in the hyperlipemia model of SD rat (fat emulsion by gavage; serum lipids); type: in vivo; settings: hyperlipemia SD rats, 40 mg/kg, dosed 21 days, X ± SD
Method: Materials and Methods for Screening with the Compounds Prepared in Experiment 1 to 21 in the Hyperlipemia Model of SD Rat
SD rats, male, 150-180 g, supplied by Shanghai Slaccas Laboratory Animal Company Limited.
Preparation of fat emulsion: 500 g lard oil was weighed and placed into a vessel, heated for melting, and upon heating up to the temperature of 100° C., 200 g cholesterol was added and fully dissolved, then 20 g propylthiouracil was added. After full stirring and dissolving, 500 ml Tween 80 was added to give an oil phase. Meanwhile, 600 ml distilled water and 400 ml 1,2-propylene glycol were heated to 60° C. in water bath, and then 40 g sodium deoxycholate was added with stirring, until full dissolution, to give an aqueous phase. The aqueous phase was added into the oil phase and fully and uniformly mixed, to prepare the fat emulsion.
Formulation of the solution for the compounds: an appropriate amount of compounds was triturated with appropriate amount of Tween 80 for homogeneous dispersion, and then sufficient CMC-Na solution was added and fully triturated, suspended to give the solution for the compounds.
The animals were fed for acclimation for 3 days, with 8 animals as blank control (Control) according to weight, and the rest was subject to intragastric administration of fat emulsion at 1 ml/100 g weight at A.M. 9:00-11:00 daily for continuous 2 weeks; the animals were fasted for 12 hours, and had 1 ml blood sampled at orbital cavity, which was measured with the Hitachi Automatic Biochemical Analyzer 7080 for serum cholesterol (CHO), triglyceride (TO), low-density lipoprotein (LDL-C) and high-density lipoprotein (HDL-C), with the animals having CHO of 4-7 mmol/L for experiment.
The animals dosed with fat emulsion for 2 weeks were divided into model group (Model), simvastatin group (Sim, 10 mg/kg) and compound group (40 mg/kg) according to weight, and continued to receive intragastric administration with fat emulsion; at the same time, the dosed group was administered with respective amount of drug, and the model group was administered with equal volume of solvent. Fat emulsion was dosed by gavage at A.M., and drug was dosed at P.M. The animals were weighed at Monday, and were observed. The animals were dosed for continuous 21 days, and fasted for 12 hours, with 1 ml blood sampling at orbital cavity. The liver was exposed and observed for pathologic condition; after slicing and weighing, it was fixed into the 4% formaldehyde solution for pathologic examination.
The Hitachi Automatic Biochemical Analyzer 7080 was used to measure serum cholesterol (CHO), triglyceride (TG), low-density lipoprotein (LDL-C) and high-density lipoprotein (HDL-C).
Laboratory data were expressed as X±SD (Standard Deviation), and comparison between groups was carried out by t-testing.

[2] = system: Cholelithiasis Model of Golden Hamster; test: Screening in the cholelithiasis model of golden hamster (biochemical measurement of bile); type: in vivo, golden hamsters; settings: dosed 45 days, X ± SD
Method: Screening with the Compounds Prepared in Experiment 1 to 21 in the Cholelithiasis Model of Golden Hamster
68 male golden hamsters, 50-60 g, supplied by Shanghai Slaccas Laboratory Animal Company Limited.
The animals were fed for acclimation for 3 days, with 8 animals as blank control (Control) according to weight. The control was dosed with normal rat feedstuff, and the rest was dosed with feedstuff leading to cholelithiasis (sucrose 32.1%, cheese 64.2%, cholesterol 0.2%, salt 3%, vitamin B1 […], concentrated fish liver oil 0.4%). The animals were fed for acclimation for another 7 days, and divided into model group (Model), simvastatin group (Sim, 10 mg/kg), Ursodesoxycholic acid group (UDCA, 40 mg/kg), and compound group, n=6/group.
[…] 2:00-3:00 daily. The animals were weighed at Monday, and observed for hair color, stool, and variation of activation level.
The animals were dosed for continuous 45 days and then fasted for 12 hours; were anesthetized with 30 mg/kg sodium secobarbital via intraperitoneal injection; had 1 ml blood sampled via abdominal aorta; had gallbladder exposed, with an orifice on the gallbladder being clamped by the ophthalmological pliers and bile in the gallbladder being sucked with 1 ml syringe.
The Hitachi Automatic Biochemical Analyzer 7080 was used to measure cholesterol (CHO), total total bilirubin (TBIL), total bile acid (TBA) and total protein (TP) in bile.
Laboratory data was expressed as X±SD, and comparison of measurement data between groups was carried out by t-testing, with non-parametric testing for enumeration data.

Structure (SMILES)	CHO1 Concentration (serum cholesterol) [1]	HDL-C Concentration (serum high-density lipoprotein) [1]	LDL-C Concentration (serum low-density lipoprotein) [1]	TG Concentration (serum triglyceride) [1]	Cholesterol (CHO) in bile ([2]; 80 mg/kg)	Total bile acid (TBA) in bile ([2]; 80 mg/kg)	Total protein (TP) in bile ([2]; 80 mg/kg)	Total total bilirubin (TBIL) in bile ([2]; 80 mg/kg)	Cholesterol (CHO) in bile ([2]; 40 mg/kg)	Total bile acid (TBA) in bile ([2]; 40 mg/kg)	Total protein (TP) in bile ([2]; 40 mg/kg)	Total total bilirubin (TBIL) in bile ([2]; 40 mg/kg)
CC(C)(Oc1ccc(CCNC(=O)c2ccc(Cl)cc2)cc1)C(=O)NCC(=O)c1ccc(O)cc1 [Compound 01]	14.84 ± 1.06 mmol/L	1.56 ± 0.25 mmol/L	13.90 ± 1.23 mmol/L	0.66 ± 0.13 mmol/L								
CC(C)(Oc1ccc(CCNC(=O)c2ccc(Cl)cc2)cc1)C(=O)NCC(=O)c1ccc(OC(=O)C(C)(C)Oc2ccc(CCNC(=O)c3ccc(Cl)cc3)cc2)cc1 [Compound 02]	17.29 ± 3.23 mmol/L	1.68 ± 0.38 mmol/L	16.01 ± 2.99 mmol/L	0.68 ± 0.18 mmol/L								
CC(C)(Oc1ccc(C(=O)c2ccc(Cl)cc2)cc1)C(=O)NCC(=O)c1ccc(O)cc1 [Compound 03]	12.63 ± 2.77 mmol/L	1.54 ± 0.20 mmol/L	11.11 ± 2.45 mmol/L	0.99 ± 0.18 mmol/L								
CC(C)(Oc1ccc(C(=O)c2ccc(Cl)cc2)cc1)C(=O)NCC(=O)c1ccc(OC(=O)C(C)(C)Oc2ccc(C(=O)c3ccc(Cl)cc3)cc2)cc1 [Compound 04]	10.02 ± 1.80 mmol/L	1.82 ± 0.19 mmol/L	9.84 ± 1.37 mmol/L	1.15 ± 0.12 mmol/L								
Cc1ccc(C)c(OCCCC(C)(C)C(=O)NCC(=O)c2ccc(O)cc2)c1 [Compound 05]	15.30 ± 2.45 mmol/L	1.54 ± 0.24 mmol/L	14.38 ± 2.12 mmol/L	1.31 ± 0.15 mmol/L								
Cc1ccc(C)c(OCCCC(C)(C)C(=O)NCC(=O)c2ccc(OC(=O)C(C)(C)CCCOc3cc(C)ccc3C)cc2)c1 [Compound 06]	16.37 ± 2.26 mmol/L	1.49 ± 0.29 mmol/L	15.78 ± 2.00 mmol/L	1.53 ± 0.16 mmol/L								
CC(C)(Oc1ccc(C2CC2(Cl)Cl)cc1)C(=O)NCC(=O)c1ccc(O)cc1 (stereo not shown) [Compound 07]	14.99 ± 1.45 mmol/L	1.74 ± 0.46 mmol/L	13.90 ± 1.21 mmol/L	1.39 ± 0.16 mmol/L								
CC(C)(Oc1ccc(C2CC2(Cl)Cl)cc1)C(=O)NCC(=O)c1ccc(OC(=O)C(C)(C)Oc2ccc(C3CC3(Cl)Cl)cc2)cc1 (stereo not shown) [Compound 08]	12.92 ± 2.10 mmol/L	2.12 ± 0.27 mmol/L	11.41 ± 1.90 mmol/L	0.83 ± 0.13 mmol/L								
CC(C)(Oc1ccc(Cl)cc1)C(=O)NCC(=O)c1ccc(O)cc1 [Compound 09]	13.64 ± 2.14 mmol/L	2.18 ± 0.22 mmol/L	11.64 ± 2.00 mmol/L	0.95 ± 0.14 mmol/L								
CC(C)(Oc1ccc(Cl)cc1)C(=O)NCC(=O)c1ccc(OC(=O)C(C)(C)Oc2ccc(Cl)cc2)cc1 [Compound 10]	9.73 ± 1.79 mmol/L	2.66 ± 0.24 mmol/L	8.27 ± 1.46 mmol/L	0.94 ± 0.15 mmol/L								
CCC(C)(Oc1ccc(C2(c3ccc(OC(C)(CC)C(=O)NCC(=O)c4ccc(O)cc4)cc3)CCCCC2)cc1)C(=O)O (stereo not shown) [Compound 11]	12.18 ± 3.12 mmol/L	1.79 ± 0.34 mmol/L	11.37 ± 3.66 mmol/L	1.13 ± 0.14 mmol/L	0.82 ± 0.58 mmol/L	17.46 ± 7.77 mmol/L	28.66 ± 8.48 g/L	48.9 ± 22.10 µmol/L				
CCC(C)(Oc1ccc(C2(c3ccc(OC(C)(CC)C(=O)NCC(=O)c4ccc(O)cc4)cc3)CCCCC2)cc1)C(=O)NCC(=O)c1ccc(O)cc1 (stereo not shown) [Compound 12]	20.17 ± 1.27 mmol/L	1.895 ± 0.39 mmol/L	19.31 ± 1.52 mmol/L	0.75 ± 0.25 mmol/L								
CCC(CC)(CCCOc1cc(C)cc(C)c1)C(=O)NCC(=O)c1cccc(O)c1 [Compound 13]	20.17 ± 1.27 mmol/L	1.895 ± 0.39 mmol/L	19.31 ± 1.52 mmol/L	0.75 ± 0.25 mmol/L								
COc1ccc(OCCCC(C)(C)C(=O)NCC(=O)c2ccc(O)c(C)c2)cc1C [Compound 14]	20.66 ± 3.23 mmol/L	2.25 ± 0.22 mmol/L	20.78 ± 3.46 mmol/L	0.99 ± 0.28 mmol/L								
Cc1cc(C(=O)CCNC(=O)C(C)(CCCOc2cc(Cl)ccc2C)C(C)C)ccc1O (stereo not shown) [Compound 15]	15.00 ± 2.75 mmol/L	1.89 ± 0.26 mmol/L	14.04 ± 3.12 mmol/L	1.34 ± 0.48 mmol/L								
CCC(CCCOc1cc(C)ccc1C)C(=O)N(C)CC(=O)c1cc(C)cc(O)c1 (stereo not shown) [Compound 16]	9.48 ± 1.27 mmol/L	1.32 ± 0.39 mmol/L	7.13 ± 1.52 mmol/L	0.78 ± 0.25 mmol/L					0.97 ± 0.62 mmol/L	19.74 ± 12.14 mmol/L	40.70 ± 26.17 g/L	55.0 ± 29.38 µmol/L
Cc1ccc(C)c(OCCCC(C)(C)C(=O)NCC(=N)c2ccc(O)c(Cl)c2)c1 [Compound 17]	10.54 ± 3.23 mmol/L	1.82 ± 0.22 mmol/L	8.13 ± 3.46 mmol/L	0.88 ± 0.28 mmol/L								
Cc1ccc(C)c(OCCCC(C)(C)C(=O)NC2CCC(C(=S)c3ccc(O)cc3)CC2)c1 (stereo not shown) [Compound 18]	15.04 ± 2.73 mmol/L	1.56 ± 0.51 mmol/L	13.47 ± 3.68 mmol/L	1.25 ± 0.33 mmol/L								
Cc1ccc(C)c(OCCCC(C)(C)C(=O)NCC(=O)c2cc(O)cc(O)c2)c1 [Compound 19]	11.12 ± 1.01 mmol/L	1.36 ± 0.66 mmol/L	10.76 ± 1.25 mmol/L	0.94 ± 0.06 mmol/L								
C[C@H](CCC(=O)O)[C@H]1CC[C@H]2[C@@H]3[C@@H](O)C[C@@H]4C[C@H](O)CC[C@]4(C)[C@H]3CC[C@]12C [Ursodesoxycholic acid, reference compound]									0.98 ± 0.47 mmol/L	12.23 ± 3.04 mmol/L	28.63 ± 10.37 g/L	89.4 ± 45.3 µmol/L
